Results from patent US7250440B2, “(Hydroxyphenyl)-1H-indole-3-carbaldehyde oxime derivatives as estrogenic agents” (Wyeth, priority 2003, dated 2007).
Read-outs that look alike come from different tables or passages of the source.

How the values were obtained:
human ERβ = molecular target: T1, human ERβ (Homo sapiens, UniProt Q92731); assay: Competition with [3H]-17β-estradiol for binding to the ERβ ligand binding domain
T1 construct: made in house; host or cells: E. coli
Procedure: (§1) Representative examples of the invention were evaluated for their ability to compete with 17β-estradiol for both ERα and ERβ. This test procedure provides the methodology for one to determine whether a particular compound binds to the estrogen receptor (and is therefore “estrogenic”) and whether there is selectivity for ERα or ERβ. […] 17β-estradiol is included as a standard reference for comparison. The procedure used is briefly described below. A crude lysate of E. coli expressing the estrogen receptor ligand binding domains D, E, & F) of human ERα or ERβ was prepared. Both receptors and compounds were diluted in 1× Dulbecco's PBS (DPBS) supplemented with 1 mM EDTA. Using a high binding masked microtiter plate, 100 uL of receptor (1 uG/well) was combined with 2 nM [^3H]-17β-estradiol and various concentrations of compound. After between 5 and 15 hours at room temperature, the plates were washed with DPBS/1 mM EDTA and bound radioactivity determined by liquid scintillation counting.

human ERα = molecular target: T2, human ERα (Homo sapiens, UniProt P03372); assay: Competition with [3H]-17β-estradiol for binding to the ERα ligand binding domain; details: crude E. coli lysate expressing human ERα ligand binding domain; 2 nM [3H]-17β-estradiol; 5-15 hours at room temperature
T2 construct: made in house; host or cells: E. coli
T2 sequence (P03372 311-547 limits assumed): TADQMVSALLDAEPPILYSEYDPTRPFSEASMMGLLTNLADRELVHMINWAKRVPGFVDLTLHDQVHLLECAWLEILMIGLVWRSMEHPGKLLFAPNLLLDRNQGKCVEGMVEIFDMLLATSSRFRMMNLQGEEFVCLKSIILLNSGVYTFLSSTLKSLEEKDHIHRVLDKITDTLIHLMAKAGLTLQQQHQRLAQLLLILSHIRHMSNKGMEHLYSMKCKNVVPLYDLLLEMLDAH
Procedure: as §1

T1 sequence (Q92731 264-498 limits assumed): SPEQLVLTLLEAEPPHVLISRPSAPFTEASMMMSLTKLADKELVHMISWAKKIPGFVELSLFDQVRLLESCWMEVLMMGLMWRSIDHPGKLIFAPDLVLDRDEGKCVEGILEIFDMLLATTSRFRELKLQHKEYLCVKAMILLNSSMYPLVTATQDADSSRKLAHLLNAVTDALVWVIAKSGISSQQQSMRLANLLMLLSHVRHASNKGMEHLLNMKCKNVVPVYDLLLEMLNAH

Row | SMILES | melting point [°C] | IC50 (human ERβ) [nM] | IC50 (human ERα) [nM] | IC50 (human ERβ; crude E. coli lysate expressing human ERβ ligand binding domain, 2 nM [3H]-17β-estradiol, 5-15 hours at room temperature, read-out: ERβ) [nM]
1 | Cc1c(/C=N/O)c2ccccc2n1-c1ccc(O)cc1 [Example 4, 1-(4-Hydroxyphenyl)-2-methyl-1H-indole-3-carbaldehyde oxime] | 171 to 173 | – | – | –
2 | Cc1c(/C=N/O)c2cc(F)ccc2n1-c1ccc(O)cc1 [Example 5, 5-Fluoro-1-(4-hydroxyphenyl)-2-methyl-1H-indole-3-carbaldehyde oxime] | 162 to 163 | 6.2 | 91 | –
3 | Cc1c(/C=N/O)c2cc(Cl)ccc2n1-c1ccc(O)cc1 [Example 6, 5-Chloro-1-(4-hydroxyphenyl)-2-methyl-1H-indole-3-carbaldehyde oxime] | 212 to 213 | 29 | 145 | –
4 | Cc1c(/C=N/O)c2cc(Br)ccc2n1-c1ccc(O)cc1 [Example 7, 5-Bromo-1-(4-hydroxyphenyl)-2-methyl-1H-indole-3-carbaldehyde oxime] | 209 to 211 | 93.5 | 235 | –
5 | O/N=C1\CCCc2c1c1ccccc1n2-c1ccc(O)cc1 [Example 8, (4E)-9-(4-Hydroxyphenyl)-1,2,3,9-tetrahydro-4H-carbazol-4-one oxime] | 227 to 229 | 10 | 153 | –
6 | O/N=C/c1cn(-c2ccc(O)cc2)c2ccccc12 [Example 9, 1-(4-Hydroxyphenyl)-1H-indole-3-carbaldehyde oxime] | 95 to 97 | – | – | –
7 | Cc1c(/C=N/O)c2ccccc2n1-c1ccc(O)c(F)c1 [Example 10, 1-(3-Fluoro-4-hydroxyphenyl)-2-methyl-1H-indole-3-carbaldehyde oxime] | 182 to 184 | – | – | 8
